Experiment [1] concerns Candida albicans BWP17 wt. The experiment can be described thus: Percent hyphae by flow cytometry with or without heparin. Type of experiment: cell-based. The conditions noted are these: 100 units/ml heparin; YPD 30° C. or RPMI-HEPES 37° C. The method, then:
Flow cytometry was performed by inoculating a single colony of BWP17 wt into 3 ml YPD medium and incubating overnight at 30° C. with shaking at 225 rpm. […] One ml aliquots of each mixture were removed, pelleted (7,000 rpm for 3 min), washed twice with PBS, and reconstituted in 1 ml PBS. Flow cytometry analysis was performed using the Imagestream^X flow cytometer (Amnis, Seattle Wash.) equipped with a 405 nm, 488 nm, 653 nm, laser and multi-mag function. The 40× magnification, 10 mm/sec flow rate, and 488 nm laser were used to collect SSC and Brightfield parameters. The flow cell allows particles up to 100 μm wide (height unlimited) to be collected in the instrument. INSPIRE (v.6.0) software was used to acquire events. Software analysis using IDEAS (v5.0) identified percent hyphae using aspect ratio, height and width features using the side scatter (Channel 6) and brightfield (Channel 1) parameters. Objects were selected within each file and tagged to use as identification of truth sets within the population.

Experiment [2] has as its system C. albicans surface proteins. Description: nLC-MSMS semi-quantitation of C. albicans surface proteins in supernatants of heparin-treated versus untreated organisms. Type of experiment: cell-based, Candida albicans. On the procedure:
In other systems, heparin has been reported to cleave surface proteins (56), change protein conformation (57), and bind trypsin-sensitive lysine and arginine residues in histone H1 (58). In order to understand whether incubation with heparin changed the conformation of C. albicans surface proteins, 1×10^7 C. albicans were incubated for one hour at […] on a rotator with pharmacologic heparin (20,000 units/ml) diluted in RPMI-HEPES to a working concentration of 250 units/ml. C. albicans 1×10^7 C. albicans in an equal volume of RPMI-HEPES served as control. Supernatants were removed. 300 μl of Hep+ and Hep− supernatants were incubated with 100 μl avidin agarose beads (Thermo Scientific) for 60 min at room temperature on a rotator in the presence of 50 units heparin (Hep+); an equal volume of RPMI-HEPES was substituted for heparin in the Hep− supernatants. Beads were pelleted, and 100 μl beads were incubated with 100 μl 3.0 M NaCl for 30 mins at room temperature on a rotator. Beads were pelleted and the supernatants were withdrawn; 100 μl TCA was added to 100 μl Hep+ or 100 μl Hep− supernatants and incubated on ice overnight at 4° C. The TCA precipitates were stored at −80° C. until analysis by mass spectroscopy.
Six biological replicates of TCA precipitated protein pellets from equal cellular equivalence of heparin-treated (Hep+) and untreated (Hep−) conditioned medium from cultures of C. albicans were each solubilized in 50 μL Laemmli gel buffer. To remove any residual TCA and to further concentrate the samples, each was subjected to buffer exchange and concentration using an Amicon ultra 3 kDa microfuge filtration cartridge at 14,000×g for 15 min with five subsequent additions of 50 μL of 1× Laemmli gel buffer between spins. The resulting retained proteins (6 Hep+ and 6 Hep−) were subsequently prepared for SDS-PAGE by combining into two pools of three samples for the Hep+ and Hep− conditioned medium. The replicate sample pools were loaded onto two 4-12% mini gels and separated using the MOPS buffer system followed by silver staining to visualize the proteins using the Sigma Proteosilver system. The proteins were prepared for identification and quantitation by mass spectrometry by gridding the gel lanes from the replicates of Hep+ and Hep− samples into 11 equal regions followed by in gel trypsin digestion and extraction of peptides as described (59)
The recovered peptides from the gridded gel sections were analyzed by liquid chromatography coupled nano-electrospray mass spectrometry (nLC-MSMS) on a TripleTOF 5600 mass spectrometer (AB Sciex, Toronto Canada) attached to an Eksigent (Dublin Calif.) nanoLC ultra nanoflow system. […]

The mark [3] stands for this setting: heparin 250 units/ml, compared to untreated organisms.

Consider heparin, for which the “percent hyphae by flow cytometry” value in experiment [1] is reported as “did not differ”. Besides, in experiment [2] (setting [3]), the “increase in VPTTDVSVVDLTVR from Tdh3 in supernatants” value is listed as “five-fold increase”, the “increase in intensity of IDVVDQAK from Eno1 in supernatants” value was “seven-fold increase” and the “increase in intensity of SLLDAAVK from Pgk1 in supernatants” value is listed as “ten-fold increase”. In experiment [2] (versus corresponding peptides from untreated organisms, data not shown), the “increased intensities of other peptides from Eno1, Pgk1 and Tdh3” value is on record as 10-16 fold.

The values are drawn from patent US9409975B2, “Antibody binding microbial heparin binding motif to retard or prevent microbial biofilm formation on implanted medical devices” (priority 2012, dated 2016).
